Data as given in ChEMBL document CHEMBL2413040, “Ligand/kappa-opioid receptor interactions: insights from the X-ray crystal structure” (Eur J Med Chem, 2013).

Experiment: Binding affinity to kappa opioid receptor in guinea pig cerebral cortex after 2.5 hrs
Format: tissue-based, Cavia porcellus

Row | Ki [nM] | SMILES
1 | 6000 | NC(=O)[C@H](CC1CCCCC1)NC(=O)[C@@H](Cc1c[nH]c2ccccc12)NC(=O)[C@H](Cc1ccc2ccccc2c1)NC(=O)[C@@H](N)Cc1ccccc1
2 | 10000 | CCCC[C@H](N)C(=O)N[C@@H](Cc1ccccc1)C(=O)N[C@H](Cc1c[nH]c2ccccc12)C(=O)N[C@@H](CC1CCCCC1)C(N)=O
3 | 10000 | NC(=O)[C@H](CC1CCCCC1)NC(=O)[C@@H](Cc1c[nH]c2ccccc12)NC(=O)[C@H](Cc1ccccc1)NC(=O)[C@@H](N)Cc1ccccc1
4 | 10000 | CCCC[C@H](N)C(=O)N[C@@H](Cc1ccc2ccccc2c1)C(=O)N[C@H](Cc1c[nH]c2ccccc12)C(=O)N[C@@H](CC1CCCCC1)C(N)=O
5 | 7.1 | CCCC[C@@H](NC(=O)[C@H](Cc1ccc2ccccc2c1)NC(=O)[C@@H](N)Cc1ccccc1)C(=O)N[C@@H](CCCNC(=N)N)C(N)=O
6 | 9.3 | CCCC[C@H](N)C(=O)N[C@@H](Cc1ccccc1)C(=O)N[C@@H](C(=O)N[C@@H](CCCNC(=N)N)C(N)=O)[C@@H](C)CC
7 | 26 | CCCC[C@@H](NC(=O)[C@H](Cc1ccccc1)NC(=O)[C@@H](N)Cc1ccccc1)C(=O)N[C@@H](CC1CCCCC1)C(N)=O
8 | 27 | CCCC[C@H](N)C(=O)N[C@@H](Cc1ccc2ccccc2c1)C(=O)N[C@H](CCCC)C(=O)N[C@@H](CC1CCCCC1)C(N)=O
9 | 33 | CCCC[C@@H](NC(=O)[C@H](Cc1ccc2ccccc2c1)NC(=O)[C@@H](N)Cc1ccccc1)C(=O)N[C@@H](CC1CCCCC1)C(N)=O
10 | 53 | CC[C@H](C)[C@@H](NC(=O)[C@H](Cc1ccc2ccccc2c1)NC(=O)[C@@H](N)Cc1ccccc1)C(=O)N[C@@H](CC1CCCCC1)C(N)=O
11 | 56 | CCCC[C@H](N)C(=O)N[C@@H](Cc1ccc2ccccc2c1)C(=O)N[C@@H](C(=O)N[C@@H](CC1CCCCC1)C(N)=O)[C@@H](C)CC
12 | 64 | CC[C@H](C)[C@@H](NC(=O)[C@H](Cc1ccccc1)NC(=O)[C@@H](N)Cc1ccccc1)C(=O)N[C@@H](CC1CCCCC1)C(N)=O
13 | 71 | CCCC[C@H](N)C(=O)N[C@@H](Cc1ccccc1)C(=O)N[C@H](CCCC)C(=O)N[C@@H](CC1CCCCC1)C(N)=O
14 | 341 | CCCC[C@H](N)C(=O)N[C@@H](Cc1ccccc1)C(=O)N[C@@H](C(=O)N[C@@H](CC1CCCCC1)C(N)=O)[C@@H](C)CC
15 | 1140 | N=C(N)NCCC[C@H](NC(=O)[C@@H](Cc1c[nH]c2ccccc12)NC(=O)[C@H](Cc1ccccc1)NC(=O)[C@@H](N)Cc1ccccc1)C(N)=O
16 | 1150 | N=C(N)NCCC[C@H](NC(=O)[C@@H](Cc1c[nH]c2ccccc12)NC(=O)[C@H](Cc1ccc2ccccc2c1)NC(=O)[C@@H](N)Cc1ccccc1)C(N)=O
17 | 1760 | CCCC[C@H](N)C(=O)N[C@@H](Cc1ccc2ccccc2c1)C(=O)N[C@H](Cc1c[nH]c2ccccc12)C(=O)N[C@@H](CCCNC(=N)N)C(N)=O
18 | 4550 | CCCC[C@H](N)C(=O)N[C@@H](Cc1ccccc1)C(=O)N[C@H](Cc1c[nH]c2ccccc12)C(=O)N[C@@H](CCCNC(=N)N)C(N)=O
19 | 1.5 | CCCC[C@H](N)C(=O)N[C@@H](Cc1ccc2ccccc2c1)C(=O)N[C@@H](C(=O)N[C@@H](CCCNC(=N)N)C(N)=O)[C@@H](C)CC
20 | 2.3 | CCCC[C@H](N)C(=O)N[C@@H](Cc1ccc2ccccc2c1)C(=O)N[C@H](CCCC)C(=O)N[C@@H](CCCNC(=N)N)C(N)=O
21 | 2.4 | CC[C@H](C)[C@@H](NC(=O)[C@H](Cc1ccccc1)NC(=O)[C@@H](N)Cc1ccccc1)C(=O)N[C@@H](CCCNC(=N)N)C(N)=O
22 | 3.6 | CC[C@H](C)[C@@H](NC(=O)[C@H](Cc1ccc2ccccc2c1)NC(=O)[C@@H](N)Cc1ccccc1)C(=O)N[C@@H](CCCNC(=N)N)C(N)=O
23 | 4.2 | CCCC[C@H](N)C(=O)N[C@@H](Cc1ccccc1)C(=O)N[C@H](CCCC)C(=O)N[C@@H](CCCNC(=N)N)C(N)=O

Row | SMILES | Ki [nM]
24 | CCCC[C@@H](NC(=O)[C@H](Cc1ccccc1)NC(=O)[C@@H](N)Cc1ccccc1)C(=O)N[C@@H](CCCNC(=N)N)C(N)=O | 1.2
